Assay results reported in publication PMC7093416, “Selective USP7 inhibition elicits cancer cell killing through a p53-dependent mechanism” (Scientific Reports, 2020).

Test system: panel of 484 cancer cell lines
Experiment: PRISM cancer cell line profiling, 5 days
Type: cell-based
Set-up: AUC: unit not given beside the values
Protocol: Cancer cell line profiling was performed using the Broad’s PRISM platform. Cell treatment and data analysis were performed as described in Yu et al[42]. Raw Luminex signal was converted to AUC values for each cell line as described. The resulting AUC profile for each compound was modeled against DepMap using the limma package in R[71]. Because hotspot mutation analysis was performed against DepMap, TP53 annotations in Fig. 6c,d are directly from DepMap.

CN1CCN(CCC(=O)Nc2ccc3c(=O)n(CC4(O)CCN(C(=O)[C@H](CCCNC(=O)c5ccc6c(Cl)c7c(nc6c5)CCCC7)Cc5ccccc5)CC4)cnc3c2)CC1 [XL177B] gave an AUC (HCC1438_LUNG) of 0.9398, an AUC (HCC1588_LUNG) of 1.124 and an AUC (HCC1806_BREAST) of 1.262. For the same compound, the AUC (HCC1937_BREAST) was 0.9651, the AUC (HCC4006_LUNG) was 1.102 and the AUC (HCT15_LARGE_INTESTINE) was 1.193. The AUC (HCT116_LARGE_INTESTINE) was 1.02, the AUC (HDQP1_BREAST) was 0.9999 and the AUC (HEC1A_ENDOMETRIUM) was 1.104. It also gave an AUC (HEC1B_ENDOMETRIUM) of 1.096, an AUC (HEC6_ENDOMETRIUM) of 1.02 and an AUC (HEC59_ENDOMETRIUM) of 1.13. For the same compound, the AUC (HEC108_ENDOMETRIUM) was 0.935, the AUC (HEC151_ENDOMETRIUM) was 0.9419 and the AUC (HEC251_ENDOMETRIUM) was 0.8279. The AUC (HEC265_ENDOMETRIUM) was 0.8825, the AUC (HEP3B217_LIVER) was 1.23 and the AUC (HEYA8_OVARY) was 1.2. The AUC (HGC27_STOMACH) was 1.226, the AUC (HLF_LIVER) was 0.794 and the AUC (HMC18_BREAST) was 1.228. It also gave an AUC (HOS_BONE) of 1.145, an AUC (HPAC_PANCREAS) of 1.288 and an AUC (HS294T_SKIN) of 1.038. It also gave an AUC (HS618T_LUNG) of 1.097, an AUC (HS729_SOFT_TISSUE) of 1.1211 and an AUC (HS766T_PANCREAS) of 1.2108. The AUC (HS852T_SKIN) was 1.089, the AUC (HS939T_SKIN) was 1.116 and the AUC (HS944T_SKIN) was 1.026. It also gave an AUC (HSC2_UPPER_AERODIGESTIVE_TRACT) of 1.102, an AUC (HSC3_UPPER_AERODIGESTIVE_TRACT) of 1.094 and an AUC (HT29_LARGE_INTESTINE) of 1.23. The AUC (HT55_LARGE_INTESTINE) was 1.212, the AUC (HT144_SKIN) was 1.106 and the AUC (HT1080_SOFT_TISSUE) was 0.9733. For the same compound, the AUC (HT1376_URINARY_TRACT) was 0.9173, the AUC (HUCCT1_BILIARY_TRACT) was 1.078 and the AUC (HUH6_LIVER) was 0.9719. The AUC (HUH7_LIVER) was 1.132, the AUC (HUH28_BILIARY_TRACT) was 1.093 and the AUC (HUPT3_PANCREAS) was 1.102. For the same compound, the AUC (IALM_LUNG) was 1.165, the AUC (IGR1_SKIN) was 1.13 and the AUC (IGR37_SKIN) was 1.06. It also gave an AUC (IGROV1_OVARY) of 0.9036, an AUC (IM95_STOMACH) of 0.9524 and an AUC (IPC298_SKIN) of 1.071. The AUC (ISHIKAWAHERAKLIO02ER_ENDOMETRIUM) was 1.087, the AUC (ISTMES1_PLEURA) was 0.902 and the AUC (ISTMES2_PLEURA) was 1.138. For the same compound, the AUC (J82_URINARY_TRACT) was 1.062, the AUC (JHH1_LIVER) was 0.9889 and the AUC (JHH4_LIVER) was 0.8541. It also gave an AUC (JHH5_LIVER) of 1.201, an AUC (JHH6_LIVER) of 1.182 and an AUC (JHH7_LIVER) of 1.125. It also gave an AUC (JHOC5_OVARY) of 1.064, an AUC (JHOM1_OVARY) of 1.08 and an AUC (JHOS2_OVARY) of 1.281. It also gave an AUC (JHUEM2_ENDOMETRIUM) of 0.8483, an AUC (JIMT1_BREAST) of 0.9922 and an AUC (JMSU1_URINARY_TRACT) of 1.004. The AUC (K029AX_SKIN) was 1.1273, the AUC (KALS1_CENTRAL_NERVOUS_SYSTEM) was 1.102 and the AUC (KELLY_AUTONOMIC_GANGLIA) was 1.134. It also gave an AUC (KMBC2_URINARY_TRACT) of 0.9911, an AUC (KMRC1_KIDNEY) of 1.146 and an AUC (KMRC3_KIDNEY) of 1.058. It also gave an AUC (KMRC20_KIDNEY) of 1.146, an AUC (KNS42_CENTRAL_NERVOUS_SYSTEM) of 1.1 and an AUC (KNS60_CENTRAL_NERVOUS_SYSTEM) of 1.09. For the same compound, the AUC (KNS62_LUNG) was 1.118, the AUC (KNS81_CENTRAL_NERVOUS_SYSTEM) was 1.075 and the AUC (KP2_PANCREAS) was 0.9926. It also gave an AUC (KP3_PANCREAS) of 1.089, an AUC (KP4_PANCREAS) of 0.9662 and an AUC (KPL1_BREAST) of 1.217. For the same compound, the AUC (KU1919_URINARY_TRACT) was 0.9667, the AUC (KYSE30_OESOPHAGUS) was 1.063 and the AUC (KYSE70_OESOPHAGUS) was 1.0546. It also gave an AUC (KYSE140_OESOPHAGUS) of 1.1657, an AUC (KYSE150_OESOPHAGUS) of 1.101 and an AUC (KYSE180_OESOPHAGUS) of 1.135. It also gave an AUC (KYSE270_OESOPHAGUS) of 1.03, an AUC (KYSE410_OESOPHAGUS) of 1.091 and an AUC (KYSE510_OESOPHAGUS) of 1.034. The AUC (KYSE520_OESOPHAGUS) was 1.133, the AUC (L33_PANCREAS) was 1.426 and the AUC (LC1SQSF_LUNG) was 1.115. It also gave an AUC (LCLC103H_LUNG) of 1.231, an AUC (LI7_LIVER) of 0.9601 and an AUC (LK2_LUNG) of 1.126. The AUC (LMSU_STOMACH) was 1.053, the AUC (LN18_CENTRAL_NERVOUS_SYSTEM) was 1.129 and the AUC (LN229_CENTRAL_NERVOUS_SYSTEM) was 1.034. It also gave an AUC (LNCAPCLONEFGC_PROSTATE) of 0.9173, an AUC (LOUNH91_LUNG) of 1.097 and an AUC (LOVO_LARGE_INTESTINE) of 1.325. The AUC (LOXIMVI_SKIN) was 1.09, the AUC (LS180_LARGE_INTESTINE) was 1.075 and the AUC (LS411N_LARGE_INTESTINE) was 1.3262. It also gave an AUC (LS513_LARGE_INTESTINE) of 1.3335, an AUC (LS1034_LARGE_INTESTINE) of 1.506 and an AUC (LU99_LUNG) of 0.9959. For the same compound, the AUC (LUDLU1_LUNG) was 0.9789, the AUC (LXF289_LUNG) was 1.119 and the AUC (MALME3M_SKIN) was 0.9879. It also gave an AUC (MCAS_OVARY) of 1.03, an AUC (MCF7_BREAST) of 1.188 and an AUC (MDAMB175VII_BREAST) of 1.1488. It also gave an AUC (MDAMB231_BREAST) of 1.063, an AUC (MDAMB435S_SKIN) of 1.117 and an AUC (MDAMB436_BREAST) of 1.147. It also gave an AUC (MDAMB468_BREAST) of 1.0692, an AUC (MELHO_SKIN) of 1.016 and an AUC (MELJUSO_SKIN) of 1.072. It also gave an AUC (MESSA_SOFT_TISSUE) of 0.9027, an AUC (MEWO_SKIN) of 1.126 and an AUC (MFE280_ENDOMETRIUM) of 1.168. It also gave an AUC (MFE296_ENDOMETRIUM) of 1.031.
